Nine molecules from patent US11530244B2, “Cyclic polypeptides for PCSK9 inhibition” (priority 2018, dated 2022) can be followed below.

Where two headings read alike, the source gives them in different places. Starred links: 1 amine or outer side, 2 acyl side, 3 side chain; linkers in the order of their positions; H or OH if unused. Positions of bridges follow the written chain, without caps; N, C: chain ends. Non-standard residues stand in square brackets, D forms with d. Residues, ends and D or L forms follow the SMILES beside them. X14 = CCOP(=O)(OCC)C(F)(F)c1ccc(C[C@H](N[*:1])C(=O)[*:2])cc1; Pyridine(2,6-diCH2) = c1cc(C[*:1])nc(C[*:2])c1; Trp(5-F) = N[C@@H](Cc1c[nH]c2ccc(F)cc12)C(=O)O; Phe(4-CH2NH2) = NCc1ccc(C[C@H](N)C(=O)O)cc1; Pro(cis-4-F) = O=C(O)[C@@H]1C[C@H](F)CN1; X4 = O=C(CCSCc1cccc(CSCCN[*:1])c1)[*:2]; mXylylene = c1cc(C[*:1])cc(C[*:2])c1; AEF = NCCOc1ccc(C[C@H](N)C(=O)O)cc1; X8 = Clc1cc(C[*:1])cc(C[*:2])c1; aThr = C[C@H](O)[C@H](N)C(=O)O; αMeP = C[C@@]1(C(=O)O)CCCN1; Mpa = O=C(O)CCS

In experiment [1] the target is human PCSK9 / human LDLR EGFa domain interaction (Homo sapiens (Human), UniProt Q8NBP7). The experiment is described as follows: TR-FRET assay of inhibition of the PCSK9-LDLR protein-protein interaction. The class given is binding. An outline of the steps: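 Compounds in dose-response are mixed with 20 nM human PCSK9 (avitag-biotinylated) and 20 nM his-tagged LDLR EGFa domain, plus 5 nM each streptavidin-Ulight and Eu-anti-6×His. After 2 h at room temperature in HEPES/NaCl/CaCl2 buffer with BSA and P20, TR-FRET is read and IC50 fitted (4-parameter).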
(In TR-FRET formats the signal depends on donor and acceptor labels being close together.)

In a further experiment the target is PCSK9 (Homo sapiens (Human), UniProt Q8NBP7). The experiment is described as follows: PCSK9 Alexa FRET Standard assay (displacement of AlexaFluor647 tagged cyclic peptide Reagent A). The class given is binding. The following applies: 0.5 nM PCSK9, 20 nM AF cyclic peptide Reagent A. Summed up:
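TR-FRET displacement: 0.5 nM biotinylated PCSK9 with 1.25 nM Strep-Eu and 20 nM AlexaFluor-tagged cyclic peptide (final) in 50 mM HEPES pH 7.4, 0.15 M NaCl, 5 mM CaCl2, 0.01% BSA, 0.01% P20, ≥2 h at room temperature. IC50 from sigmoidal fit, converted to Ki via peptide KD; falling Eu counts flagged false positives.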

Setting [2] is: TR-FRET, 20 nM human PCSK9, 20 nM human LDLR EGFa domain, 2 hours room temperature, read-out: IC50.
Where [3] appears, read: PCSK9 Alexa FRET Standard assay, read-out: IC50.

Sequence of human PCSK9 / human LDLR EGFa domain interaction (Q8NBP7 153-692): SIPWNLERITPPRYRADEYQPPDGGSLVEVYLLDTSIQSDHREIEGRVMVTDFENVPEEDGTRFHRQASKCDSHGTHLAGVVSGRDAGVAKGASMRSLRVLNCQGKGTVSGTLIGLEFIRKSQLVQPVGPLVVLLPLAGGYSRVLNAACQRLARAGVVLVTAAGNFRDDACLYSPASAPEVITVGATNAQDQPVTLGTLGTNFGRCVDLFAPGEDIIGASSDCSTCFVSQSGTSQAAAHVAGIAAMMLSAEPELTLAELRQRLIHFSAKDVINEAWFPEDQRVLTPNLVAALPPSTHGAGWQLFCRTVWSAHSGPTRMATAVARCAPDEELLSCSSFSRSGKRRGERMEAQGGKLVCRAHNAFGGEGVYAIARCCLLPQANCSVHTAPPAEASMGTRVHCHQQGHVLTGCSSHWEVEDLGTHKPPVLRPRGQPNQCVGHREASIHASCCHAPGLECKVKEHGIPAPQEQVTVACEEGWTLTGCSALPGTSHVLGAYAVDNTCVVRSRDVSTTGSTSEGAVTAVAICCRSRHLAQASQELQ
Sequence of human PCSK9 / human LDLR EGFa domain interaction (Q8NBP7 31-152 partner): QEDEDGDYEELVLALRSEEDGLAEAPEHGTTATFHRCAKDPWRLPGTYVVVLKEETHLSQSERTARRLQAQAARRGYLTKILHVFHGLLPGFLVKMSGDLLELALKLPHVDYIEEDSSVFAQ
Sequence of PCSK9 (Q8NBP7 153-692): as the sequence (Q8NBP7 153-692) above

As usually defined, the IC50 is the concentration needed to halve the response being measured. With `COc1ccc(C[C@@H]2NC(=O)[C@H]([C@@H](C)O)NC(=O)[C@@H]3CCCN3C(=O)[C@H](Cc3c[nH]c4ccc(F)cc34)NC(=O)[C@H](Cc3c[nH]c4ccc(F)cc34)NC(=O)[C@@H](C)NC(=O)[C@H](CCCCN)NC(=O)CCSCc3cc(Cl)cc(c3)CSC[C@@H](C(N)=O)NC(=O)[C@]3(C)CCCN3C2=O)cc1` [Compound 064] ([Mpa]K[dA][Trp(5-F)][Trp(5-F)]PTY(Me)[αMeP]C-NH2; linker 1-10 via X8), the IC50 (in experiment [1] (setting [2]); on PCSK9 (setting [3])) was 1000 to 12100 nM in each case.

Turning to `COc1ccc(C[C@@H]2NC(=O)[C@H]([C@@H](C)O)NC(=O)[C@@H]3CCCN3C(=O)[C@H](Cc3c[nH]c4ccc(F)cc34)NC(=O)[C@H](Cc3c[nH]c4ccc(F)cc34)NC(=O)[C@@H](C)NC(=O)[C@H](CCCCN)NC(=O)CCSCc3cccc(n3)CSC[C@@H](C(N)=O)NC(=O)[C@]3(C)CCCN3C2=O)cc1` [Compound 065] ([Mpa]K[dA][Trp(5-F)][Trp(5-F)]PTY(Me)[αMeP]C-NH2; linker 1-10 via Pyridine(2,6-diCH2)), the values for the IC50 (in experiment [1] (setting [2]); on PCSK9 (setting [3])) were 0.1 to 100 nM and 100 to 1000 nM, respectively.

For `COc1ccc(C[C@@H]2NC(=O)[C@H]([C@@H](C)O)NC(=O)[C@@H]3C[C@H](F)CN3C(=O)[C@H](Cc3c[nH]c4ccc(F)cc34)NC(=O)[C@H](Cc3c[nH]c4ccc(F)cc34)NC(=O)[C@@H](C)NC(=O)[C@H](CCCCN)NC(=O)[C@@H](NC(C)=O)CC(=O)NCc3ccc(cc3)C[C@@H](C(N)=O)NC(=O)[C@]3(C)CCCN3C2=O)cc1` [Compound 066] (Ac-DK[dA][Trp(5-F)][Trp(5-F)][Pro(cis-4-F)]TY(Me)[αMeP][Phe(4-CH2NH2)]-NH2; lactam 1-10), the IC50 lay within 0.1 to 100 nM in experiment [1] (setting [2]) and 0.11 to 100 nM at PCSK9 (setting [3]).

Take `COc1ccc(C[C@@H]2NC(=O)[C@H]([C@@H](C)O)NC(=O)[C@@H]3C[C@H](F)CN3C(=O)[C@H](Cc3c[nH]c4ccc(F)cc34)NC(=O)[C@H](Cc3c[nH]c4ccc(F)cc34)NC(=O)[C@@H](C)NC(=O)[C@H](CCCCN)NC(=O)[C@@H](NC(C)=O)CC(=O)NCCOc3ccc(cc3)C[C@@H](C(N)=O)NC(=O)[C@]3(C)CCCN3C2=O)cc1` [Compound 067] (Ac-DK[dA][Trp(5-F)][Trp(5-F)][Pro(cis-4-F)]TY(Me)[αMeP][AEF]-NH2; lactam 1-10): the IC50 lay in the range of 0.1 to 100 nM in experiment [1] (setting [2]) and 100 to 1000 nM at PCSK9 (setting [3]).

On to `COc1ccc(C[C@@H]2NC(=O)[C@H]([C@H](C)O)NC(=O)[C@@H]3C[C@H](F)CN3C(=O)[C@H](Cc3c[nH]c4ccc(F)cc34)NC(=O)[C@H](Cc3c[nH]c4ccc(F)cc34)NC(=O)[C@@H](C)NC(=O)[C@H](CCCCN)NC(=O)[C@H](NC(C)=O)CCc3cn(nn3)-c3ccc(cc3)C[C@@H](C(N)=O)NC(=O)[C@]3(C)CCCN3C2=O)cc1` [Compound 068], for which the IC50 in experiment [1] (setting [2]) lay in the range of 0.1 to 100 nM; at PCSK9 (setting [3]), 0.11 to 100 nM.

Regarding `COc1ccc(C[C@@H]2NC(=O)[C@H]([C@H](C)OC)NC(=O)[C@@H]3C[C@H](F)CN3C(=O)[C@H](Cc3c[nH]c4ccc(F)cc34)NC(=O)[C@H](Cc3c[nH]c4ccc(F)cc34)NC(=O)[C@@H](C)NC(=O)[C@H](CCCCN)NC(=O)CCSCc3cccc(c3)CSC[C@@H](C(N)=O)NC(=O)[C@]3(C)CCCN3C2=O)cc1` [Compound 072] ([Mpa]K[dA][Trp(5-F)][Trp(5-F)][Pro(cis-4-F)][aThr](Me)Y(Me)[αMeP]C-NH2; linker 1-10 via mXylylene), the IC50 in experiment [1] (setting [2]) is 100 to 1000 nM; at PCSK9 (setting [3]), 1000 to 12100 nM.

Turning to `CCOP(=O)(OCC)C(F)(F)c1ccc(C[C@@H]2NC(=O)[C@H]([C@@H](C)O)NC(=O)[C@@H]3CCCN3C(=O)[C@H](Cc3c[nH]c4ccc(F)cc34)NC(=O)[C@H](Cc3c[nH]c4ccc(F)cc34)NC(=O)[C@@H](C)NC(=O)[C@H](CCCCN)NC(=O)CCSCc3cccc(c3)CSCCNC(=O)[C@]3(C)CCCN3C2=O)cc1` [Compound 131] (cyclo(K[dA][Trp(5-F)][Trp(5-F)]PT[X14][αMeP][X4])), the IC50 in experiment [1] was 100 to 1000 nM; at PCSK9 (IC50, PCSK9 Alexa FRET Standard assay), 1000 to 12100 nM.

On to `COc1ccc(C[C@@H]2NC(=O)[C@H]([C@@H](C)O)NC(=O)[C@@H]3C[C@H](F)CN3C(=O)[C@H](Cc3c[nH]c4ccc(F)cc34)NC(=O)[C@H](Cc3c[nH]c4ccc(F)cc34)NC(=O)[C@@H](C)NC(=O)[C@H](CCCCN)NC(=O)CCC/C=C\Cc3ccc(cc3)C[C@@H](C(N)=O)NC(=O)[C@]3(C)CCCN3C2=O)cc1` [Compound 132], for which the IC50 (in experiment [1] (setting [2]); on PCSK9 (setting [3])) was 21000 to 50000 nM in each case.

On to `CCCCCCCCCCCCCCCC(=O)N[C@@H](CCC(=O)NCCOCCOCC(=O)NCCOCCOCC(=O)NCCCC[C@H](NC(=O)CCOCCOCCOCCOCCOCCOCCOCCOCCNC(=O)CCOCCOCCOCCOCCOCCOCCOCCOCCOCCOCCOCCOCCNC(=O)[C@@H]1CSCc2cccc(c2)CSCCC(=O)N[C@@H](C)C(=O)N[C@H](C)C(=O)N[C@@H](Cc2c[nH]c3ccc(F)cc23)C(=O)N[C@@H](Cc2c[nH]c3ccc(F)cc23)C(=O)[C@@H]2C[C@H](F)CN2C(=O)N[C@@H]([C@@H](C)O)C(=O)N[C@@H](Cc2ccc(O)cc2)C(=O)N2CCC[C@@]2(C)C(=O)N1)C(N)=O)C(=O)O` [Compound 133], for which the IC50 (in experiment [1] (setting [2]); at PCSK9 (setting [3])) was 1000 to 12100 nM throughout.
